Data as given in patent US20230242936A1, “DUAL PROMOTER SYSTEMS” (Seattle Children's Hospital (dba Seattle Children's …, priority 2020, published 2023).

Tested on: CA-STAT5aER
Experiment: Logic gate system with CA-STAT5aER payload, target reporter gene expression
Type: cell-based
Conditions: host cells co-cultured with CD19+ cells and treated with tamoxifen
Description: A logic gate system similar to the system depicted in FIG. 9 and FIG. 10 are examined. Dual promoter nucleic acids are prepared and introduced into host cells. The nucleic acids include an inducible iSynPro promoter and either a constitutively activated signal transducer and activator of transcription 5a (CA-STAT5a) protein (FIG. 9), a fusion protein of CA-STAT5a and of an estrogen receptor (CA-STAT5aER) (FIG. 10), or an alternative fusion protein of CA-STAT5a and of an estrogen receptor (CA-STAT5bER). Host cells are stimulated with Raji cells (CD19+), or PMA/ionomycin and are analyzed by FACS analysis for GFP and EGFRt expression.

CC/C(=C(\c1ccccc1)c1ccc(OCCN(C)C)cc1)c1ccccc1 [tamoxifen, 2-(4((1Z)-1,2-diphenyl-1-butenyl)phenoxy)-N,N-dimethyl-ethanamine]
target reporter gene expression: express target reporter gene
